Measurements: ChEMBL document CHEMBL3351921, “Structure-activity relationships (SAR) and structure-kinetic relationships (SKR) of pyrrolopiperidinone acetic acids as CRTh2 antagonists” (Bioorg Med Chem Lett, 2014)

Columns and labels:
[1] = biological target: T1, Thromboxane A2 receptor (Homo sapiens) (UniProt P21731); test: Inhibition of at prostanoid TP receptor (unknown origin) at 10 uM
T1 sequence (whole entry): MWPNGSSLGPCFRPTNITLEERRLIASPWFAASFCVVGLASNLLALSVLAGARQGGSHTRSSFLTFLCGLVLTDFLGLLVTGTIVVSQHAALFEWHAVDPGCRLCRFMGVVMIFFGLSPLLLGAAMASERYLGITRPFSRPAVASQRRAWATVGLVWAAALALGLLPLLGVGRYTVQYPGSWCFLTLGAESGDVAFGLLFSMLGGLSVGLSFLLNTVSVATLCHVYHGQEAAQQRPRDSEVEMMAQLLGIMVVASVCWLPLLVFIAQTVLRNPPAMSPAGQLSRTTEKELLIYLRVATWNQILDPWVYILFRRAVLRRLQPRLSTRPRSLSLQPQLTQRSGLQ

[2] = biological target: T2, Prostaglandin D2 receptor (Homo sapiens) (UniProt Q13258); test: Inhibition of at prostanoid DP1 receptor (unknown origin) at 10 uM
T2 sequence (whole entry): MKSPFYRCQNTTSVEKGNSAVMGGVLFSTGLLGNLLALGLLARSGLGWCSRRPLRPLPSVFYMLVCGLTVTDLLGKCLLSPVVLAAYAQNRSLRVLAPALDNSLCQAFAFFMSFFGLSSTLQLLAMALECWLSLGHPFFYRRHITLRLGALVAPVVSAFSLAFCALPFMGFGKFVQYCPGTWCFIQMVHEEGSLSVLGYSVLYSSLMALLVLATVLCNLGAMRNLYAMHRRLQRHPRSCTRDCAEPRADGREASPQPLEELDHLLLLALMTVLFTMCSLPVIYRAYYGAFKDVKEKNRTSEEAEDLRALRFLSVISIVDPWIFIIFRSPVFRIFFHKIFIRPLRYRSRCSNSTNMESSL

[3] = biological target: T3, Prostaglandin D2 receptor 2 (Homo sapiens) (UniProt Q9Y5Y4); settings: CHO.K1
T3 sequence (whole entry): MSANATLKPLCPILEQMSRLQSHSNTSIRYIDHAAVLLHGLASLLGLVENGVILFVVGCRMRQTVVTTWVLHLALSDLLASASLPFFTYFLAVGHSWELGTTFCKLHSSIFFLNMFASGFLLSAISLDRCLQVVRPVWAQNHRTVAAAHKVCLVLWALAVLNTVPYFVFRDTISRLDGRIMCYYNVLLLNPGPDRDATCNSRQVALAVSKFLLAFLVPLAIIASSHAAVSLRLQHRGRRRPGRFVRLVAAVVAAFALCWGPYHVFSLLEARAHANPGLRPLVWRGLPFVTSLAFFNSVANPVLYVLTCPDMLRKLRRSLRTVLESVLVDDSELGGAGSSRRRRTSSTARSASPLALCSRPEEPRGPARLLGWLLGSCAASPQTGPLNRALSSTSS
Description: Antagonist activity at CRTh2 (unknown origin) stably expressed in PGD2-stimulated CHO.K1 cells assessed as dissociation half-life at 5 to 10 times IC50 after 2 hrs by radio-labelled [35S]-GTPgammaS binding assay

[4] = Apparent permeability across apical to basolateral side of human Caco2 cells at pH 7.4; format: ADME, cell-based; settings: Caco-2, pH 7.4
[5] = biological target: T4, Prostaglandin D2 receptor 2 (Homo sapiens, UniProt Q9Y5Y4); test: Antagonist activity at CRTh2 (unknown origin) stably expressed in PGD2-stimulated CHO.K1 cells preincubated for 1 hr by radio-labelled [35S]-GTPgammaS binding assay; format: functional, cell-based
T4 sequence (Q9Y5Y4 whole entry): T3 sequence (whole entry)

[6] = Dissociation constant, pKa of the compound by potentiometric method; format: physicochemical
[7] = AUC (0 to infinity) in rat at 10 mg/kg, po; format: ADME, organism-based; set-up: time infinity, dose 10 mg/kg, route oral; settings: plasma
[8] = Terminal half life in rat at 1 mg/kg, iv; format: ADME, organism-based; set-up: dose 1 mg/kg, route intravenous; settings: in vivo, read-out: beta t1/2 (converted)
[9] = Terminal half life in rat at 10 mg/kg, po; format: ADME, organism-based; set-up: dose 10 mg/kg, route oral; settings: in vivo, read-out: beta t1/2 (converted)
[10] = AUC (0 to infinity) in rat at 1 mg/kg, iv; format: ADME, organism-based; set-up: time infinity, dose 1 mg/kg, route intravenous; settings: plasma
[11] = Cmax in rat at 1 mg/kg, iv; format: ADME, organism-based; set-up: dose 1 mg/kg, route intravenous; settings: in vivo
[12] = Cmax in rat at 10 mg/kg, po; format: ADME, organism-based; set-up: dose 10 mg/kg, route oral; settings: in vivo
[13] = Volume of distribution at steady state in rat at 1 mg/kg, iv; format: ADME, organism-based; set-up: dose 1 mg/kg, route intravenous; settings: in vivo, read-out: Vdss
[14] = Clearance in rat at 1 mg/kg, iv; format: ADME, organism-based; set-up: dose 1 mg/kg, route intravenous; settings: in vivo
[15] = Oral bioavailability in rat at 10 mg/kg; format: ADME, organism-based; settings: in vivo

Compound	T1/2 [3]	IC50 [5]	other results
COc1ccc(S(=O)(=O)c2ccccc2)c(Cc2c3c(n(CC(=O)O)c2C)CCNC3=O)c1	4.2 h		inhibition [1]: < 30%; inhibition [2]: < 30%
Cc1c(Cc2ccccc2Cc2ccccc2)c2c(n1CC(=O)O)CCNC2=O		120 nM	Papp A→B [4]: 0.2 ×10⁻⁶ cm/s
Cc1c(Cc2ccc(C(F)(F)F)cc2S(=O)(=O)c2ccccc2)c2c(n1CC(=O)O)CCNC2=O	0.9 h		inhibition [1]: < 30%; inhibition [2]: < 30%
Cc1c(Cc2ccccc2S(=O)(=O)c2ccccc2F)c2c(n1CC(=O)O)CCNC2=O	1.1 h		
Cc1c(Cc2ccccc2S(=O)(=O)c2ccccc2)c2c(n1[C@@H](C)C(=O)O)CCNC2=O		91 nM	
Cc1c(Cc2ccccc2-c2cccc3ccccc23)c2c(n1CC(=O)O)CCNC2=O		480 nM	
Cc1c(Cc2ccccc2S(=O)(=O)c2ccccc2)c2c(n1[C@H](C)C(=O)O)CCNC2=O		430 nM	
Cc1c(Cc2ccc(S(=O)(=O)c3ccccc3)cc2)c2c(n1CC(=O)O)CCNC2=O		170 nM	
Cc1c(Cc2cc(C#N)ccc2S(=O)(=O)c2ccccc2)c2c(n1CC(=O)O)CCNC2=O	0.6 h	28 nM	
Cc1c(Cc2ccccc2C(O)c2ccccc2)c2c(n1CC(=O)O)CCNC2=O (centres undefined)	0.4 h	32 nM	pKa [6]: 3.1
Cc1c(Cc2ccccc2S(=O)(=O)c2ccccc2)c2c(Cl)nccc2n1CC(=O)O	2 h	16 nM	
CNC(=O)c1cccc(S(=O)(=O)c2ccccc2Cc2c3c(n(CC(=O)O)c2C)CCNC3=O)c1		240 nM	
COc1ccc(S(=O)(=O)c2ccc(F)cc2)c(Cc2c3c(n(CC(=O)O)c2C)CC(C)(C)NC3=O)c1	20 h	5 nM	
Cc1c(Cc2ccccc2S(=O)(=O)c2cccc(F)c2)c2c(n1CC(=O)O)CCNC2=O	0.8 h		inhibition [1]: < 30%; inhibition [2]: < 30%
Cc1c(Cc2ccccc2S(=O)(=O)c2cccc(Cl)c2)c2c(n1CC(=O)O)CCNC2=O	1.2 h		pKa [6]: 3.1; inhibition [1]: < 30%; inhibition [2]: < 30%
Cc1c(Cc2ccccc2S(=O)(=O)c2ccccc2)c2c(=O)n(C)ccc2n1CC(=O)O	8 h		Papp A→B [4]: 0.1 ×10⁻⁶ cm/s; inhibition [1]: < 30%; inhibition [2]: < 30%
Cc1c(Cc2ccccc2S(=O)(=O)C2CCCCC2)c2c(n1CC(=O)O)CCNC2=O		28 nM	
Cc1c(Cc2ccc(C(=O)O)cc2S(=O)(=O)c2ccccc2)c2c(n1CC(=O)O)CCNC2=O		19 nM	
CCN(Cc1ccccc1Cc1c2c(n(CC(=O)O)c1C)CCNC2=O)C(=O)C1CC1		240 nM	
COC(=O)c1ccc(Cc2c3c(n(CC(=O)O)c2C)CCNC3=O)c(S(=O)(=O)c2ccccc2)c1	1.8 h		
Cc1c(Cc2cc(F)ccc2S(=O)(=O)c2ccccc2)c2c(n1CC(=O)O)CCNC2=O	1.7 h		
Cc1c(Cc2cc(Br)ccc2S(=O)(=O)c2ccccc2)c2c(n1CC(=O)O)CCNC2=O	5.7 h		

Compound	T1/2 [3]	IC50 [5]	other results
COc1cccc(S(=O)(=O)c2ccccc2)c1Cc1c2c(n(CC(=O)O)c1C)CCNC2=O		4500 nM	
Cc1c(Cc2ccc(S(C)(=O)=O)cc2)c2c(n1CC(=O)O)CCNC2=O		900 nM	
Cc1c(Cc2ccc(S(=O)(=O)Cc3ccccc3)cc2)c2c(n1CC(=O)O)CCNC2=O	0.9 h	3 nM	
Cc1c(Cc2ccccc2S(=O)(=O)c2ccccc2)c2c(=O)n(C(F)F)ccc2n1CC(=O)O	21 h	2.2 nM	Papp A→B [4]: 0.4 ×10⁻⁶ cm/s; inhibition [1]: < 30%; inhibition [2]: < 30%
Cc1c(Cc2ccccc2S(=O)(=O)c2ccccc2)c2c(n1CC(=O)O)CCN(Cc1ccccc1)C2=O	6.7 h		pKa [6]: 3.3; inhibition [1]: < 30%; inhibition [2]: < 30%
Cc1c(Cc2ccccc2C(=O)c2ccccc2)c2c(n1CC(=O)O)CCNC2=O		810 nM	
Cc1c(Cc2ccccc2S(=O)(=O)c2ccccc2)c2c(n1CC(=O)O)CCN(C(C)C(F)(F)F)C2=O (centres undefined)	2.1 h	6 nM	Papp A→B [4]: 0.6 ×10⁻⁶ cm/s
CNC(=O)c1ccc(Cc2c3c(n(CC(=O)O)c2C)CCNC3=O)c(S(=O)(=O)c2ccccc2)c1	4.6 h	10 nM	
Cc1c(Cc2ccccc2S(=O)(=O)c2ccccc2)c2c(=O)[nH]ccc2n1CC(=O)O	1.3 h		Papp A→B [4]: 0.1 ×10⁻⁶ cm/s
Cc1c(Cc2ccccc2S(=O)(=O)N(C)Cc2ccccc2)c2c(n1CC(=O)O)CCNC2=O	0.6 h	26 nM	
Cc1c(Cc2ccccc2S(=O)(=O)c2ccccc2)c2c(n1CC(=O)O)CCN(C(C)C)C2=O	2.6 h	9 nM	pKa [6]: 2.9
CCS(=O)(=O)c1ccccc1Cc1c2c(n(CC(=O)O)c1C)CCNC2=O		550 nM	
Cc1c(Cc2ccccc2S(=O)(=O)N2CCOCC2)c2c(n1CC(=O)O)CCNC2=O	0.6 h	22 nM	
Cc1c(Cc2ccccc2S(=O)(=O)c2ccc(Cl)cc2)c2c(n1CC(=O)O)CCNC2=O	1.2 h	8.5 nM	
Cc1c(Cc2ccccc2S(=O)(=O)c2ccc(OC(F)(F)F)cc2)c2c(n1CC(=O)O)CCNC2=O	1.3 h	6.6 nM	
Cc1c(Cc2ccccc2S(=O)(=O)c2ccc(F)cc2)c2c(n1CC(=O)O)CC(C)(C)NC2=O	18 h		
Cc1c(Cc2ccccc2Cn2ccnn2)c2c(n1CC(=O)O)CCNC2=O		800 nM	
Cc1c(Cc2ccccc2S(=O)(=O)c2ccccc2)c2c(n1CC(=O)O)CCN(C)C2=O	5.3 h	7 nM	pKa [6]: 2.9
Cc1c(Cc2ccccc2Oc2ccccc2)c2c(n1CC(=O)O)CCNC2=O		530 nM	
Cc1c(Cc2ccccc2S(=O)(=O)c2ccc(F)cc2)c2c(n1CC(=O)O)CCNC2=O	3.3 h	3.3 nM	AUC(0-inf) [7]: 380 ng·h/mL; inhibition [1]: < 30%; half-life [8]: 2.2 h; half-life [9]: 5.6 h; AUC(0-inf) [10]: 2460 ng·h/mL; Cmax [11]: 5740 ng/mL; Cmax [12]: 102 ng/mL; Vd [13]: 0.19 L/kg; clearance [14]: 6.8 mL/min/kg; inhibition [2]: < 30%; bioavailability [15]: 1.5%
COc1ccc(S(=O)(=O)c2ccccc2Cc2c3c(n(CC(=O)O)c2C)CCNC3=O)cc1	3.2 h		
COc1cccc(Cc2c3c(n(CC(=O)O)c2C)CCNC3=O)c1S(=O)(=O)c1ccccc1	0.4 h		
